How the values were obtained:
human GLP-1 receptor [1] = biological target: T1, human GLP-1 receptor (Homo sapiens, UniProt P43220); assay: In vitro potency (CRE luciferase; whole cells); type: cell-based; set-up: EC50/pM (ratio 1% HSA/0% HSA): unit not given here; conditions: for EC50: BHK cells
T1 construct: expressed in transfected cells; host or cells: BHK cells, clone FCW467-12A/KZ10-1 (parent line BHKTS13), further transfected with CRE luciferase
In short: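 Reporter: CRE-luciferase in BHK cells stably expressing human GLP-1R, 5×10^3 cells/well; compounds tested in buffer containing 0% or 1% HSA.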

human GLP-1 receptor [2] = biological target: T1, human GLP-1 receptor; assay: GLP-1 receptor binding (SPA, displacement of 125I-GLP-1)
In short: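 Tracer [125I]-GLP-1(7-36)NH2 at 0.06 nM final competed on hamster stably transfected cell membranes captured by WGA SPA beads; 120 min, 30 °C, scintillation count.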

[3] = In vitro potency (CRE luciferase) EC50 (0% HSA), 0% HSA
[4] = In vitro potency (CRE luciferase) EC50 (1% HSA), 1% HSA
[5] = Receptor binding affinity IC50 (high HSA), 2.0% HSA (high albumin)

T1 sequence (P43220 24-463): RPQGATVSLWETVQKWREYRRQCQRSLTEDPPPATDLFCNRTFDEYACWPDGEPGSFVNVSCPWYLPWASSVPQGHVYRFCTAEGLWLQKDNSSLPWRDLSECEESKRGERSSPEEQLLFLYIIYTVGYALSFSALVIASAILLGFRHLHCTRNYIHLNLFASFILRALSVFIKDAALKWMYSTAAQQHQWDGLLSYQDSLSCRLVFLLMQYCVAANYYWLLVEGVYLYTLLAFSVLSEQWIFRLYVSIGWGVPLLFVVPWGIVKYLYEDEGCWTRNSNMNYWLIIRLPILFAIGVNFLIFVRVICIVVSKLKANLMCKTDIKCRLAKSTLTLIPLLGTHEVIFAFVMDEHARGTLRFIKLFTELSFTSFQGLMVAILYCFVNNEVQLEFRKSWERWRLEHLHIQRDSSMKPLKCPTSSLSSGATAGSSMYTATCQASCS

Structure (SMILES)	EC50 (human GLP-1 receptor [1]; [3])	EC50 (human GLP-1 receptor [1]; [4])	IC50 (human GLP-1 receptor [2]; [5])	EC50/pM (ratio 1% HSA/0% HSA) (human GLP-1 receptor [1]; ratio of EC50 at 1% HSA to EC50 at 0% HSA)	IC50 (human GLP-1 receptor [2]; Receptor binding affinity IC50 (low HSA), 0.001% HSA (low albumin))
CC[C@H](C)[C@H](NC(=O)[C@H](Cc1ccccc1)NC(=O)[C@H](CCC(=O)O)NC(=O)[C@H](CCCCNC(=O)[C@@H](N)CCCCNC(=O)[C@@H](N)CCCCNC(=O)CC[C@H](NC(=O)CC[C@H](NC(=O)CCCCCCCCCCOc1ccc(C(=O)O)cc1)C(=O)O)C(=O)O)NC(=O)[C@H](C)NC(=O)[C@H](C)NC(=O)[C@H](CCC(N)=O)NC(=O)CNC(=O)[C@H](CCC(=O)O)NC(=O)[C@H](CC(C)C)NC(=O)[C@H](Cc1ccc(O)cc1)NC(=O)[C@H](CO)NC(=O)[C@H](CO)NC(=O)[C@@H](NC(=O)[C@H](CC(=O)O)NC(=O)[C@H](CO)NC(=O)[C@@H](NC(=O)[C@H](Cc1ccccc1)NC(=O)[C@@H](NC(=O)CNC(=O)[C@H](CCC(=O)O)NC(=O)C(C)(C)NC(=O)[C@@H](N)Cc1c[nH]cn1)[C@@H](C)O)[C@@H](C)O)C(C)C)C(=O)N[C@@H](C)C(=O)N[C@@H](Cc1c[nH]c2ccccc12)C(=O)N[C@@H](CC(C)C)C(=O)N[C@H](C(=O)N[C@@H](CCCNC(=N)N)C(=O)NCC(=O)N[C@@H](CCCNC(=N)N)C(=O)N[C@@H](CCCCNC(=O)[C@@H](N)CCCCNC(=O)[C@@H](N)CCCCNC(=O)CC[C@H](NC(=O)CC[C@H](NC(=O)CCCCCCCCCCOc1ccc(C(=O)O)cc1)C(=O)O)C(=O)O)C(=O)O)C(C)C [Example 38, N^ε26-[(2S)-2-amino-6-[[(2S)-2-amino-6-[[(4S)-4-carboxy-4-[[(4S)-4-carboxy-4-[11-(4-carboxyphenoxy)undecanoylamino]butanoyl]amino]butanoyl]amino]hexanoyl]amino]hexanoyl], N^ε37-[(2S)-2-amino-6-[[(2S)-2-amino-6-[[(4S)-4-carboxy-4-[[(4S)-4-carboxy-4-[11-(4-carboxyphenoxy)undecanoylamino]butanoyl]amino]butanoyl]amino]hexanoyl]amino]hexanoyl]-[Aib^8,Arg^34,Lys^37]-GLP-1-(7-37)-peptide]	7.6 pM	189 pM	53000 pM	–	–
CC[C@H](C)[C@H](NC(=O)[C@H](Cc1ccccc1)NC(=O)[C@H](CCC(=O)O)NC(=O)[C@H](CCCCNC(=O)[C@@H](N)CCCCNC(=O)CC[C@H](NC(=O)CC[C@H](NC(=O)CC[C@H](NC(=O)CCCCCCCCCCOc1ccc(C(=O)O)cc1)C(=O)O)C(=O)O)C(=O)O)NC(=O)[C@H](C)NC(=O)[C@H](C)NC(=O)[C@H](CCC(N)=O)NC(=O)CNC(=O)[C@H](CCC(=O)O)NC(=O)[C@H](CC(C)C)NC(=O)[C@H](Cc1ccc(O)cc1)NC(=O)[C@H](CO)NC(=O)[C@H](CO)NC(=O)[C@@H](NC(=O)[C@H](CC(=O)O)NC(=O)[C@H](CO)NC(=O)[C@@H](NC(=O)[C@H](Cc1ccccc1)NC(=O)[C@@H](NC(=O)CNC(=O)[C@H](CCC(=O)O)NC(=O)C(C)(C)NC(=O)[C@@H](N)Cc1c[nH]cn1)[C@@H](C)O)[C@@H](C)O)C(C)C)C(=O)N[C@@H](C)C(=O)N[C@@H](Cc1c[nH]c2ccccc12)C(=O)N[C@@H](CC(C)C)C(=O)N[C@H](C(=O)N[C@@H](CCCNC(=N)N)C(=O)NCC(=O)N[C@@H](CCCNC(=N)N)C(=O)N[C@@H](CCCCNC(=O)[C@@H](N)CCCCNC(=O)CC[C@H](NC(=O)CC[C@H](NC(=O)CC[C@H](NC(=O)CCCCCCCCCCOc1ccc(C(=O)O)cc1)C(=O)O)C(=O)O)C(=O)O)C(=O)O)C(C)C [Example 39, N^ε26-[(2S)-2-amino-6-[[(4S)-4-carboxy-4-[[(4S)-4-carboxy-4-[[(4S)-4-carboxy-4-[11-(4-carboxyphenoxy)undecanoylamino]butanoyl]amino]butanoyl]amino]butanoyl]amino]hexanoyl], N^ε37-[(2S)-2-amino-6-[[(4S)-4-carboxy-4-[[(4S)-4-carboxy-4-[[(4S)-4-carboxy-4-[11-(4-carboxyphenoxy)undecanoylamino]butanoyl]amino]butanoyl]amino]butanoyl]amino]hexanoyl]-[Aib^8,Arg^34,Lys^37]-GLP-1-(7-37)-peptide]	3.7 pM	140 pM	131000 pM	38	60 pM

Source: patent US10604554B2, “Double-acylated GLP-1 derivatives” (Novo Nordisk A/S, priority 2012, dated 2020)
